According to the NIST ThermoML archive (doi:10.1016/j.jct.2015.02.017):

Assay: mn = molality of the nth substance listed, in mol/kg
Details: 298.15 K, 101 kPa, Liquid; for viscosity: Capillary tube (Ostwald / Ubbelohde) method; for mass density: Vibrating tube method

C[n+]1ccn(CCCCCCn2cc[n+](C)c2)c1.[Br-].[Br-] + O
Details	mass density [kg/m3]	viscosity [mPa·s]
m1 = 0.0407	–	0.917
m1 = 0.0814	1006.92	–
m1 = 0.0989	–	0.953
m1 = 0.1	1009.1	–
m1 = 0.1196	–	0.966
m1 = 0.1206	1011.5	–
m1 = 0.1403	1013.75	0.98
m1 = 0.1604	–	0.993
m1 = 0.1772	1017.94	–
m1 = 0.2001	–	1.02

C[n+]1ccn(CCCCCn2cc[n+](C)c2)c1.[Br-].[Br-] + O
Details	mass density [kg/m3]	viscosity [mPa·s]
m1 = 0.05	1003.25	0.917
m1 = 0.0825	1007.17	–
m1 = 0.0967	–	0.943
m1 = 0.1108	1010.53	0.949
m1 = 0.1389	–	0.966
m1 = 0.1522	1015.32	–
m1 = 0.1621	–	0.979
m1 = 0.1929	–	0.996
m1 = 0.2152	1022.44	–

C[n+]1ccn(CCCCn2cc[n+](C)c2)c1.[Br-].[Br-] + O
Details	mass density [kg/m3]	viscosity [mPa·s]
m1 = 0.0993	1009.54	0.94
m1 = 0.1398	1014.42	0.958
m1 = 0.1597	1016.78	0.967
m1 = 0.1794	–	0.977
m1 = 0.194	1020.81	0.984
m1 = 0.2187	1023.65	0.996
m1 = 0.2485	1027.04	1.008

O=C[C@H](O)[C@@H](O)[C@H](O)[C@H](O)CO [D-glucose] + O
Details	mass density [kg/m3]	viscosity [mPa·s]
m1 = 0.2	1010.41	0.975
m1 = 0.4	1023.12	1.068
m1 = 0.8	1046.88	1.28
m1 = 1.2	1068.58	1.532
m1 = 1.6	1088.48	1.83
